“Also recorded” adds a separate entry of the source. Read-outs that look alike come from different tables or passages of the source. No end group written: not given here.

Consider 10 compounds from US5514653A, “Method of blocking the SEC receptor” (Washington University, priority 1994, dated 1996).

For series [1], the system named is PC12 cells. In words: MTT assay of neurotoxicity in PC12 cells. The format is cell-based. Particulars: for effect on MTT reduction: FIG. 1 and 2. The method, then: The MTT assay (19) was used to monitor the neurotoxicity of amyloid-β peptide. […] Inhibition of MTT reduction is a specific, early indicator of amyloid-β-mediated cytotoxicity. The PC12 cell line was used because it is the most well characterized cell line of neuronal origin and because previous studies have shown there is abundant expression of SEC receptor in this cell line.
(§1) First, the effect of amyloid-β 25-35 on MTT reduction in PC12 cells was examined (FIG. 1). PC12 cells were incubated for six (6) hours at 37° C. with amyloid-β 25-35 in several different concentrations as shown on the horizontal axis. MTT was added and the cells incubated at 37° C. for another two (2) hours. Cell extraction buffer was added and the incubation continued at 37° C. overnight. Cell extracts were then subjected to spectro-photometric analysis at 570 nm.
Second, the specificity of the effect of amyloid-β 25-35 on MTT reduction in PC12 cells was examined (FIG. 2).
(§2) In the MTT assay used herein, inhibition of cellular redox activity is measured by 3- 4,5-dimethylthiazol-2-yl!-2,5-diphenyltetrazolium bromide (MTT) by conventional procedures as described by Hansen et al. (19).

Another series deals with neurons. Particulars: cited from earlier work.
In series [2] the test system is SEC receptor. Particulars: cited from earlier work.
A further series concerns neutrophils. Particulars: cited from earlier work.
The subject of series [3] is PC12 cells. In words: Inhibition of amyloid-β 25-35 neurotoxicity (MTT assay) in PC12 cells. Format: cell-based. Particulars: FIG. 3 and 4.
Description: The MTT assay (19) was used to monitor the neurotoxicity of amyloid-β peptide. […] Inhibition of MTT reduction is a specific, early indicator of amyloid-β-mediated cytotoxicity. The PC12 cell line was used because it is the most well characterized cell line of neuronal origin and because previous studies have shown there is abundant expression of SEC receptor in this cell line. Using ^125 I peptide 105Y there is specific, saturable binding.
as §1, with “[…] Results” for “Cell extracts”, “reported as percent control response as determined by the difference between control cells and cells lysed prior” for “then subjected”, “incubation with MTT. […]” for “spectro-photometric analysis at 570 nm.”
as §2

For series [4], the system named is SEC receptor. In words: Competition for binding to the SEC receptor.
A further series addresses substance P receptor (Homo sapiens, UniProt P25103). To be noted: cited from earlier work.

Chain of substance P receptor (P25103 whole entry, species assumed): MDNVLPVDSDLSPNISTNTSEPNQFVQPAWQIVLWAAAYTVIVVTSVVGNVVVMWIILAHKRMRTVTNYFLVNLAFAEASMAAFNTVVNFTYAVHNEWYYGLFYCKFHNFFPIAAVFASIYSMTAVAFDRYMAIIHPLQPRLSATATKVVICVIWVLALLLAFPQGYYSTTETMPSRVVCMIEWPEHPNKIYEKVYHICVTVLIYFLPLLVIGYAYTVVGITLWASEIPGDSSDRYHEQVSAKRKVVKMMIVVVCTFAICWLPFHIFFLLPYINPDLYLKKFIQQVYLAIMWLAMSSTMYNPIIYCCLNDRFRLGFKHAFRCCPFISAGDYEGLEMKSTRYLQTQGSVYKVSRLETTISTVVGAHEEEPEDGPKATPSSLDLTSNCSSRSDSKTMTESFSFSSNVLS

As to “amyloid-β 1-40: region of the amyloid-β protein”, the “effect on MTT reduction” value with PC12 cells [1] was “effect similar to that of amyloid-β 25-35”.

As to substance P, the “blocking of amyloid-β 25-35 effects on neurons” value in the series with neurons is listed as “blocked”. In addition, the “binding to / recognition by the SEC receptor” value in the series with SEC receptor [2] is “bind to the SEC receptor; also recorded: approximately similar affinities”. Besides, in the series with neutrophils, the “desensitization of the SEC receptor on neutrophils to chemotactic effects of amyloid-β” value was “elicited homologous desensitization” and the neutrophil chemotactic effect result is given as “neutrophil chemotactic effects”.

As for “amyloid-β 1-28: region of the amyloid-β protein”, in the series on PC12 cells [1], the “effect on MTT reduction” value was “no effect”.

Regarding neurokinin B, the “binding to / recognition by the SEC receptor” value with SEC receptor [2] is “approximately similar affinities”.

As for “α1 -AT-elastase complexes: complexes of α1-antitrypsin with elastase which compete for binding to the SEC receptor”, the “inhibition of the effect of amyloid-β 25-35 (neurotoxicity)” value with PC12 cells [3] is listed as “inhibit the effect of amyloid-β 25-35”. Also, in the series on SEC receptor [4], the “competition for binding to the SEC receptor” value is given as “compete for binding to the SEC receptor”.

As for “IAGRSLNPNRVTLRYNKPFILVLFETPGNSLVFLGRISNPATK [PB145]”, the “neurotoxic activity of the peptide by itself” value with PC12 cells [1] (peptide alone) is “did not have any neurotoxic activity by itself”.

Turning to substance K, the “binding to / recognition by the SEC receptor” value with SEC receptor [2] is reported as “approximately similar affinities”.

For “native α1-AT: native α1-antitrypsin, negative control”, the “inhibition of the effect of amyloid-β 25-35 (neurotoxicity)” value in the series with PC12 cells [3] is recorded as “does not”.

On to amyloid-β, for which the “binding to / recognition by the SEC receptor” value with SEC receptor [2] was “bind to the SEC receptor”. The “binding to / recognition by the substance P receptor” value at substance P receptor is given as “does not recognize”; at substance P receptor (listed as Amyloid-β), “do not bind to the substance P receptor”. Moreover, the neutrophil chemotactic effect result in the series on neutrophils was “neutrophil chemotactic effects”.

`CSCC[C@H](NC(=O)[C@H](CC(C)C)NC(=O)[C@H](Cc1cnc[nH]1)NC(=O)CNC(=O)[C@@H](NC(=O)[C@H](C)NC(=O)[C@H](Cc1c[nH]c2ccccc12)NC(=O)[C@H](CCC(N)=O)NC(=O)[C@H](CC(N)=O)NC(=O)CNC(=O)[C@H](CC(C)C)NC(=O)[C@H](CCCN=C(N)N)NC(=O)[C@H](CCC(N)=O)NC(=O)[C@@H]1CCC(=O)N1)C(C)C)C(N)=O` [bombesin]: the “binding to / recognition by the substance P receptor” value on substance P receptor was “does not recognize”.
